The text below walks through data of patent US10934302B1, “SHP2 phosphatase inhibitors and methods of use thereof” (Relay Therapeutics, Inc., priority 2018, dated 2021).

Structures are written as SMILES.

Chain of SHP2 (Q06124 whole entry): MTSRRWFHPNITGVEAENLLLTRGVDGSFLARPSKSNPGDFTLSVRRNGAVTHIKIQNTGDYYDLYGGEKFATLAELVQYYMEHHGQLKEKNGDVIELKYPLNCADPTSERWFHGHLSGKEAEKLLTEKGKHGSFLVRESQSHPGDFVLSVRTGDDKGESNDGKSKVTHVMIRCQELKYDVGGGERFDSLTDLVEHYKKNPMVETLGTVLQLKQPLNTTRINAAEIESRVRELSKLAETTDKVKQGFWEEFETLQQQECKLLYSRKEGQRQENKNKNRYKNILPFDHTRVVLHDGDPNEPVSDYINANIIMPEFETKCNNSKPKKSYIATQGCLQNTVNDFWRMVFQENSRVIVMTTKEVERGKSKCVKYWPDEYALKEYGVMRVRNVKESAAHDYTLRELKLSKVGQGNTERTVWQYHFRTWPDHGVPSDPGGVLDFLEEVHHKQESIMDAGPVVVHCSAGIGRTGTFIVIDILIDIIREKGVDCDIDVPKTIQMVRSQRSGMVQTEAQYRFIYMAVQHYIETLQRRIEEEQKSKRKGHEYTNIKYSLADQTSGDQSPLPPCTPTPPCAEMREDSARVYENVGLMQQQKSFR

The test addresses SHP2 (Homo sapiens (Human), UniProt Q06124). Nature of the test: SHP2 allosteric inhibition assay (DiFMUP prompt fluorescence). The conditions noted are these: 0.25 nM SHP2 activated with 0.5 μM peptide IRS1_pY1172(dPEG8)pY1222; substrate DiFMUP. In kind it is biochemical.
By IC50 is commonly meant the concentration at which inhibition is half-maximal. Read a high IC50 as lower potency. In turn, `N[C@@H]1c2cccc(F)c2CC12CCN(c1cnc3cn[nH]c3n1)CC2` [Example 23] yielded an IC50 of 1000 to 10000 nM. The compound `Nc1nccc(-c2n[nH]c3nc(N4CCC5(CC4)Cc4ccccc4[C@@H]5N)cnc23)c1F` [Example 77, (R)-1′-(3-(2-amino-3-fluoropyridin-4-yl)-1H-pyrazolo[3,4-b]pyrazin-6-yl)-1,3-dihydrospiro[indene-2,4′-piperidin]-1-amine] had a half-inhibitory concentration (IC50) of no more than 50 nM. `N[C@@H]1c2ccccc2C[C@@]12CC=C(c1cnc3c(N4CCCc5ncccc54)n[nH]c3n1)CC2` (single isomer, unassigned) [Example 173] registered a 50% inhibitory concentration (IC50) greater than 10000 nM. Compound `C[C@@H](C(N)=O)N(C)c1n[nH]c2nc(N3CCC4(CC3)Cc3ccccc3[C@H]4N)cnc12` (racemic) [Example 151, (2S)-2-({6-[(3S)-3-amino-1,3-dihydrospiro[indene-2,4′-piperidin]-1′-yl]-1H-pyrazolo[3,4-b]pyrazin-3-yl}(methyl)amino)propanamide] gave a concentration for half-maximal inhibition (IC50) of no more than 50 nM. `Cn1cc(-c2ccc3c(n2)CCCN3c2n[nH]c3nc(N4CCC5(CC4)Cc4cccnc4C5N)cnc23)cn1` (stereo not shown) [Example 46] returned a concentration for half-maximal inhibition (IC50) of no more than 50 nM.

`Cc1cc(-c2cccnc2)c(C)c(N2CCC3(CC2)Cc2ccccc2[C@H]3N)n1` [Example 294, (3S)-1′-{3′,6′-dimethyl-[3,4′-bipyridin]-2′-yl}-1,3-dihydrospiro[indene-2,4′-piperidin]-3-amine] showed a 50% inhibitory concentration (IC50) of no more than 50 nM. With `Nc1nccc(Sc2ccc(N3CCC4(CC3)Cc3ccccc3[C@H]4N)c(CO)n2)c1Cl` [Example 258, {3-[(3S)-3-amino-1,3-dihydrospiro[indene-2,4′-piperidin]-1′-yl]-6-[(2-amino-3-chloropyridin-4-yl)sulfanyl]pyridin-2-yl}methanol], the IC50 was no more than 50 nM. Regarding `Nc1nc(N2CCC3(CC2)Cc2ccccc2[C@@H]3N)cnc1-c1cccc(Cl)c1Cl` [Example 21, (3R)-1′-[6-amino-5-(2,3-dichlorophenyl)pyrazin-2-yl]-1,3-dihydrospiro[indene-2,4′-piperidin]-3-amine], the half-inhibitory concentration (IC50) is no more than 50 nM. The result for `Nc1nccc(Sc2cnc3c(n2)OC[C@H]2C[C@@]4(CCN32)Oc2ccccc2[C@H]4N)c1Cl` [Example 222] reads no more than 50 nM; that for `N[C@@H]1c2ccccc2CC12CCN(c1cnc(C(=O)N3CCCc4ncccc43)cn1)CC2` [Example 111], no more than 50 nM.

The compound `Cc1nc2c(N3CCCc4c3ccn(C)c4=O)n[nH]c2nc1N1CCC2(CC1)Cc1ccc(F)cc1[C@H]2N` [Example 246, 1-{6-[(3S)-3-amino-5-fluoro-1,3-dihydrospiro[indene-2,4′-piperidin]-1′-yl]-5-methyl-1H-pyrazolo[3,4-b]pyrazin-3-yl}-6-methyl-1,2,3,4,5,6-hexahydro-1,6-naphthyridin-5-one] came in with an IC50 greater than 10000 nM.

Turning to `NC1c2ccccc2C[C@]12CC[C@H](c1ccc(SCC3CC3)nc1)CC2` (single isomer, unassigned) [Example 281, (1s, 3'S, 4R)-4-{6-[(cyclopropylmethyl)sulfanyl]pyridin-3-yl}-1′,3′-dihydrospiro[cyclohexane-1,2′-inden]-3′-amine], the half-inhibitory concentration (IC50) lay in the range of 50 to 1000 nM. On to `Cc1nc2c(N3CCCc4c3ccn(C)c4=O)n[nH]c2nc1N1CCC2(CC1)Cc1cc(F)ccc1[C@H]2N` [Example 245], for which the IC50 lay within 1000 to 10000 nM. Compound `N[C@@H]1c2ccccc2CC12CCN(c1nc3[nH]nc(N4CCCc5ncccc54)c3nc1CO)CC2` [Example 100] returned an IC50 of 50 to 1000 nM.

In the case of `Cc1c(-c2ccccc2Cl)nc2sc(N3CCC4(CC3)Cc3ccccc3[C@H]4N)nn12` [Example 144, (S)-1′-(6-(2-chlorophenyl)-5-methylimidazo[2,1-b][1,3,4]thiadiazol-2-yl)-1,3-dihydrospiro[indene-2,4′-piperidin]-1-amine], the IC50 is no more than 50 nM. Compound `CC(=O)N1CCN(c2n[nH]c3nc(N4CCC5(CC4)Cc4ccccc4[C@H]5N)c(CO)nc23)c2ccccc21` [Example 102] gave an IC50 of no more than 50 nM. Take `N[C@@H]1c2ccccc2CC12CCN(c1cnc(S[C@H]3CCOC3)cn1)CC2` (single isomer, unassigned) [Example 234]: the 50% inhibitory concentration (IC50) is no more than 50 nM. Turning to `N[C@@H]1c2ccccc2CC12CCN(c1cnc3c(N4CCCc5cc(OS(=O)(=O)F)ccc54)n[nH]c3n1)CC2` [Example 65, 1-{6-[(3S)-3-amino-1,3-dihydrospiro[indene-2,4′-piperidin]-1′-yl]-1H-pyrazolo[3,4-b]pyrazin-3-yl}-1,2,3,4-tetrahydroquinolin-6-yl sulfurofluoridate], the IC50 was no more than 50 nM.

Turning to `Cc1nc2c(cnn2-c2cccc3c(=O)n(C)ccc23)nc1N1CCC2(CC1)Oc1ccccc1[C@H]2N` [Example 203], the half-maximal inhibitory concentration (IC50) was no more than 50 nM. `N[C@@H]1c2ccccc2OC12CCN(c1cnc(Sc3ccnc(Cl)c3Cl)cn1)CC2` [Example 94] showed an IC50 of no more than 50 nM. The result for `N[C@@H]1c2ccccc2OC12CCN(c1cnc(Sc3ccnc(Cl)c3F)cn1)CC2` [Example 95] reads no more than 50 nM; that for `N[C@@H]1c2ccccc2CC12CCN(c1nc3[nH]nc(N4CCCCC4)c3nc1C1CC1)CC2` [Example 255, (3S)-1′-[5-cyclopropyl-3-(piperidin-1-yl)-1H-pyrazolo[3,4-b]pyrazin-6-yl]-1,3-dihydrospiro[indene-2,4′-piperidin]-3-amine], no more than 50 nM. For `Cc1nccc(Sc2n[nH]c3nc(N4CCC5(CC4)Cc4ccccc4[C@H]5N)cnc23)c1Cl` [Example 90], the concentration for half-maximal inhibition (IC50) fell in the range of 50 to 1000 nM.

For the compound `N[C@@H]1c2ccccc2CC12CCN(c1ccc3c(N4CCCCC4)n[nH]c3n1)CC2` [Example 209], the IC50 lay within 1000 to 10000 nM. With `N[C@@H]1c2ccccc2OC12CCN(c1cnc(SCC3CC3)cn1)CC2` [Example 273, (R)-1′-(5-((cyclopropylmethyl)thio)pyrazin-2-yl)-3H-spiro[benzofuran-2,4′-piperidin]-3-amine], the half-inhibitory concentration (IC50) is no more than 50 nM. For the compound `Nc1nccc(Sc2ccc(N3CCC4(CC3)Oc3ccc(F)cc3[C@H]4N)cn2)c1Cl` [Example 225], the IC50 is greater than 10000 nM.

On to `NC1c2ncccc2CC12CCN(c1cnc3c(N4CCCc5ncccc54)n[nH]c3n1)CC2` (stereo not shown) [Example 45], for which the concentration for half-maximal inhibition (IC50) was no more than 50 nM. Turning to `COc1ccc2c(n1)CC1(CCN(c3cnc4c(N5CCCc6ncccc65)n[nH]c4n3)CC1)[C@@H]2N` [Example 108], the IC50 was no more than 50 nM. `Cc1n[nH]c2nc(N3CCC4(CC3)Cc3ccccc3[C@H]4N)c(CO)nc12` [Example 156, {6-[(3S)-3-amino-1,3-dihydrospiro[indene-2,4′-piperidin]-1′-yl]-3-methyl-1H-pyrazolo[3,4-b]pyrazin-5-yl}methanol] returned an IC50 of no more than 50 nM. For the compound `Cc1nc(N2CCC3(CC2)Cc2c(F)cccc2[C@H]3N)c(CO)nc1-c1cccc(Cl)c1Cl` [Example 269, (S)-(3-(1-amino-4-fluoro-1,3-dihydrospiro[indene-2,4′-piperidin]-1′-yl)-6-(2,3-dichlorophenyl)-5-methylpyrazin-2-yl)methanol], the half-maximal inhibitory concentration (IC50) is no more than 50 nM. The result for `N[C@H]1c2ccccc2CC12CCN(c1cnc3c(-c4ccnc(Cl)c4Cl)n[nH]c3n1)CC2` [Example 71] reads no more than 50 nM.
